One assay concerns SR. The assay is described as follows: CCK-8 tumor cell proliferation, SR. It is filed as cell-based, Human. Conditions: Homo sapiens; Table 15, ALK inhibitor based; SR; read-out: IC50 inhibiting proliferation of tumor cells, SR. As to the method:
(§1) The tumor cells used herein were cultured in a cell culture medium listed in table 4 at 37° C. in an incubator with 5% CO2. Prior to experimentation, all cells used were correctly identified by STR profiling, and tested negative for mycoplasma through routine screenings.
(§2) IC50 values of the compounds of the present disclosure (including the compounds in Tables 1 and 3, and compounds of examples) were measured using the Meilun Cell Counting Kit-8 kit from Dalian Meilun Biotech Co., Ltd. Assay details are as follows: tumor cells were seeded in a 96-well plate at a density listed in Table 5. After 24 h, 100 μL of the inoculated cells were treated with 0.5 μL of the compounds of the present disclosure (including the compounds in Tables 1 and 3, and compounds of examples) at 10 different successively decreasing concentrations (starting at the highest concentration of 10 μM; 5-fold serial dilutions). After the cells were treated with the compounds of the present disclosure for a period of time, the cell viability detection reagent was added to the culture medium for cell viability assessment according to the instructions provided with the CCK-8 kit. […] The growth inhibition of the compounds of the present disclosure on cells was plotted by Prism Graphpad software, and the IC50 values of the compounds of the present disclosure were calculated therefrom.

In the next assay the test system is MV-4-11. The assay is described as follows: CCK-8 tumor cell proliferation, MV-4-11. The class given is cell-based, Human. As to conditions: Homo sapiens, MV4-11, MV-4-11, read-out: IC50 inhibiting proliferation of tumor cells, MV-4-11. As for the experimental part:
as §1, §2

The next assay has as its system CCRF-CEM. The assay is described as follows: CCK-8 tumor cell proliferation, CCRF-CEM. As to conditions: Homo sapiens; Table 19, IRAK4 inhibitor based; CCRF-CEM; read-out: IC50 inhibiting proliferation of tumor cells, CCRF-CEM. The class given is cell-based, Human. The essentials:
(§3)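 Authenticated cells, kept at 37 °C and 5% CO2, were given compound a day after plating; doses spanned 10 levels in 5-fold decrements from 10 μM. IC50 values come from CCK-8 viability readings.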

The next assay has as its system Jurkat. The assay is described as follows: CCK-8 tumor cell proliferation, Jurkat. The class given is cell-based, Human. Conditions: Homo sapiens, Table 23, compared to Comparative Example compounds, read-out: Inhibitory activity (IC50, nM) against tumor cell proliferation, Jurkat. As to the method: as §1, §2
For a further assay, the system named is CAL-62. The assay is described as follows: CCK-8 tumor cell proliferation, CAL-62. It is filed as cell-based, Human. Conditions: Homo sapiens; Table 23, compared to Comparative Example compounds; CAL-62; read-out: Inhibitory activity (IC50, nM) against tumor cell proliferation, CAL-62. The gist of the method: as §3
A further assay concerns MM.1R. The assay is described as follows: CCK-8 tumor cell proliferation, MM.1R. The class given is cell-based. Conditions: Table 23, compared to Comparative Example compounds, read-out: Inhibitory activity (IC50, nM) against tumor cell proliferation, MM.1R. As to the method: as §1, §2
In a further assay the test system is PC-9. The assay is described as follows: CCK-8 tumor cell proliferation, PC-9. The class given is cell-based, Human. Conditions: Homo sapiens; Table 15, ALK inhibitor based; PC-9; read-out: IC50 inhibiting proliferation of tumor cells, PC-9.
The subject of the next assay is Mino. The assay is described as follows: CCK-8 tumor cell proliferation, Mino. Conditions: Homo sapiens; Table 15, ALK inhibitor based; Mino; read-out: IC50 inhibiting proliferation of tumor cells, Mino. The class given is cell-based, Human. The essentials: as §3
Setting [1] is: Table 19, IRAK4 inhibitor based.

The structures appear in SMILES notation. pIC50: −log10 of the molar value. Read-outs that look alike come from different tables or passages of the source.

Turning to `COc1cc(N2CCN(Cc3cc4c(cc3F)C(=O)N(C3CCC(=O)NC3=O)C4)CC2)ccc1Nc1ncc(Cl)c(Nc2ccccc2P(C)(C)=O)n1` (centres unmarked) [GT-03777, 3-(5-((4-(4-((5-chloro-4-((2-(dimethylphosphoryl)phenyl)amino)pyrimidin-2-yl)amino)-3-methoxyphenyl)piperazin-1-yl)methyl)-6-fluoro-1-oxoisoindolin-2-yl)piperidine-2,6-dione], the pIC50 is greater than 7.30 in the assay with SR and 7.00 to 7.30 in the assay on MV-4-11 (Table 15, ALK inhibitor based). As for `Cc1cc(-c2nc(C(=O)Nc3cc4oc(N5CCN(Cc6ccc7c(c6)C(=O)N(C6CCC(=O)NC6=O)C7=O)CC5)nc4nc3N3CC[C@@H](O)C3)co2)ccn1` (stereo partly drawn) [GT-03845, N-(2-(4-((2-(2,6-dioxopiperidin-3-yl)-1,3-dioxoisoindolin-5-yl)methyl)piperazin-1-yl)-5-((R)-3-hydroxypyrrolidin-1-yl)oxazolo[4,5-b]pyridin-6-yl)-2-(2-methylpyridin-4-yl)oxazole-4-carboxamide], the pIC50 in the assay with MV-4-11 (setting [1]) was 6.00 to 6.30. For `Cc1cc(-c2nc(C(=O)Nc3cc4oc(N5CCN(Cc6cc(F)c7c(c6)CN(C6CCC(=O)NC6=O)C7=O)CC5)nc4nc3N3CC[C@@H](O)C3)co2)ccn1` (stereo partly drawn) [GT-03843, N-(2-(4-((2-(2,6-dioxopiperidin-3-yl)-7-fluoro-1-oxoisoindolin-5-yl)methyl)piperazin-1-yl)-5-((R)-3-hydroxypyrrolidin-1-yl)oxazolo[4,5-b]pyridin-6-yl)-2-(2-methylpyridin-4-yl)oxazole-4-carboxamide], the pIC50 was greater than 7.30 in the assay on CCRF-CEM and 7.00 to 7.30 in the assay with MV-4-11 (setting [1]). For the compound `CCc1cc2c(cc1N1CCC(N3CCN(Cc4ccc5c(c4F)CN(C4CCC(=O)NC4=O)C5=O)CC3)CC1)C(C)(C)c1[nH]c3cc(C#N)ccc3c1C2=O` (centres unmarked) [GT-03758, 8-(4-(4-((2-(2,6-dioxopiperidin-3-yl)-4-fluoro-1-oxoisoindolin-5-yl)methyl)piperazin-1-yl)piperidin-1-yl)-9-ethyl-6,6-dimethyl-11-oxo-6,11-dihydro-5H-benzo[b]carbazole-3-carbonitrile], the pIC50 in the assay on SR was greater than 7.30; with MV-4-11 (Table 15, ALK inhibitor based), 6.30 to 7.00. `Cc1cc(-c2nc(C(=O)Nc3cc4oc(N5CCN(Cc6ccc7c(c6F)CN(C6CCC(=O)NC6=O)C7=O)CC5)nc4nc3N3CC[C@@H](O)C3)co2)ccn1` (stereo partly drawn) [GT-03841, N-(2-(4-((2-(2,6-dioxopiperidin-3-yl)-4-fluoro-1-oxoisoindolin-5-yl)methyl)piperazin-1-yl)-5-((R)-3-hydroxypyrrolidin-1-yl)oxazolo[4,5-b]pyridin-6-yl)-2-(2-methylpyridin-4-yl)oxazole-4-carboxamide]: in the assay with MV-4-11 (setting [1]), the pIC50 is 6.30 to 7.00. On to `COc1cc(N2CCN(Cc3ccc4c(c3)CN(C3CCC(=O)NC3=O)C4=O)CC2)ccc1Nc1ncc(Cl)c(Nc2ccccc2P(C)(C)=O)n1` (centres unmarked) [GT-03775, 3-(5-((4-(4-((5-chloro-4-((2-(dimethylphosphoryl)phenyl)amino)pyrimidin-2-yl)amino)-3-methoxyphenyl)piperazin-1-yl)methyl)-1-oxoisoindolin-2-yl)piperidine-2,6-dione], for which the pIC50 was greater than 7.30 with SR and 6.30 to 7.00 in the assay with MV-4-11 (Table 15, ALK inhibitor based).

With `COc1cc(N2CCN(Cc3cccc4c3CN(C3CCC(=O)NC3=O)C4=O)CC2)ccc1Nc1ncc(Cl)c(Nc2ccccc2P(C)(C)=O)n1` (centres unmarked) [GT-03779, 3-(4-((4-(4-((5-chloro-4-((2-(dimethylphosphoryl)phenyl)amino)pyrimidin-2-yl)amino)-3-methoxyphenyl)piperazin-1-yl)methyl)-1-oxoisoindolin-2-yl)piperidine-2,6-dione], the pIC50 in the assay on SR was greater than 7.30; in the assay with MV-4-11 (Table 15, ALK inhibitor based), 6.30 to 7.00.

As for `Cc1cc(-c2nc(C(=O)Nc3cc4oc(N5CCN(Cc6cc7c(cc6F)C(=O)N(C6CCC(=O)NC6=O)C7)CC5)nc4nc3N3CC[C@@H](O)C3)co2)ccn1` (stereo partly drawn) [GT-03842, N-(2-(4-((2-(2,6-dioxopiperidin-3-yl)-6-fluoro-1-oxoisoindolin-5-yl)methyl)piperazin-1-yl)-5-((R)-3-hydroxypyrrolidin-1-yl)oxazolo[4,5-b]pyridin-6-yl)-2-(2-methylpyridin-4-yl)oxazole-4-carboxamide], the pIC50 in the assay on MV-4-11 (setting [1]) is 6.30 to 7.00. Take `COc1cc(N2CCN(Cc3ccc4c(c3)C(=O)N(C3CCC(=O)NC3=O)C4=O)CC2)ccc1Nc1ncc(Cl)c(Nc2ccccc2P(C)(C)=O)n1` (centres unmarked) [GT-03780, 5-((4-(4-((5-chloro-4-((2-(dimethylphosphoryl)phenyl)amino)pyrimidin-2-yl)amino)-3-methoxyphenyl)piperazin-1-yl)methyl)-2-(2,6-dioxopiperidin-3-yl)isoindoline-1,3-dione]: the pIC50 is 6.30 to 7.00 with SR and 5.30 to 6.00 in the assay with MV-4-11 (Table 15, ALK inhibitor based). In the case of `COc1cc(N2CCN(Cc3cc(F)c4c(c3)CN(C3CCC(=O)NC3=O)C4=O)CC2)ccc1Nc1ncc(Cl)c(Nc2ccccc2P(C)(C)=O)n1` (centres unmarked) [GT-03778, 3-(5-((4-(4-((5-chloro-4-((2-(dimethylphosphoryl)phenyl)amino)pyrimidin-2-yl)amino)-3-methoxyphenyl)piperazin-1-yl)methyl)-7-fluoro-1-oxoisoindolin-2-yl)piperidine-2,6-dione], the pIC50 was greater than 7.30 in the assay with SR and 6.30 to 7.00 in the assay with MV-4-11 (Table 15, ALK inhibitor based).

For `COc1cc(N2CCN(Cc3ccc4c(c3F)CN(C3CCC(=O)NC3=O)C4=O)CC2)ccc1Nc1ncc(Cl)c(Nc2ccccc2P(C)(C)=O)n1` (centres unmarked) [GT-03776, 3-(5-((4-(4-((5-chloro-4-((2-(dimethylphosphoryl)phenyl)amino)pyrimidin-2-yl)amino)-3-methoxyphenyl)piperazin-1-yl)methyl)-4-fluoro-1-oxoisoindolin-2-yl)piperidine-2,6-dione], the pIC50 in the assay with SR was greater than 7.30; in the assay on MV-4-11 (Table 15, ALK inhibitor based) it was 6.30 to 7.00.

`Cc1cc(-c2nc(C(=O)Nc3cc4oc(N5CCN(Cc6cccc7c6CN(C6CCC(=O)NC6=O)C7=O)CC5)nc4nc3N3CC[C@@H](O)C3)co2)ccn1` (stereo partly drawn) [GT-03844, N-(2-(4-((2-(2,6-dioxopiperidin-3-yl)-1-oxoisoindolin-4-yl)methyl)piperazin-1-yl)-5-((R)-3-hydroxypyrrolidin-1-yl)oxazolo[4,5-b]pyridin-6-yl)-2-(2-methylpyridin-4-yl)oxazole-4-carboxamide]: the pIC50 in the assay on MV-4-11 (setting [1]) is 6.30 to 7.00.

On to `Nc1ncnc2c1c(-c1ccc(Oc3ccccc3)cc1)nn2C1CCN(CCc2ccc3c(c2)CN(C2CCC(=O)NC2=O)C3=O)CC1` (centres unmarked) [GT-04563, 3-(5-(2-(4-(4-amino-3-(4-phenoxyphenyl)-1H-pyrazolo[3,4-d]pyrimidin-1-yl)piperidin-1-yl)ethyl)-1-oxoisoindolin-2-yl)piperidine-2,6-dione], for which the IC50 with Jurkat is 1000 to 5000 nM; in the assay on CAL-62 it was 5000 to 10000 nM; in the assay with MM.1R, less than 50 nM. For the compound `CCc1cc2c(cc1N1CCC(N3CCN(Cc4cc5c(cc4F)C(=O)N(C4CCC(=O)NC4=O)C5)CC3)CC1)C(C)(C)c1[nH]c3cc(C#N)ccc3c1C2=O` (centres unmarked) [GT-03759, 8-(4-(4-((2-(2,6-dioxopiperidin-3-yl)-6-fluoro-1-oxoisoindolin-5-yl)methyl)piperazin-1-yl)piperidin-1-yl)-9-ethyl-6,6-dimethyl-11-oxo-6,11-dihydro-5H-benzo[b]carbazole-3-carbonitrile], the pIC50 in the assay with PC-9 is 6.30 to 7.00; in the assay with SR, greater than 7.30; in the assay on MV-4-11 (Table 15, ALK inhibitor based), 6.30 to 7.00; in the assay on Mino, 6.00 to 6.30. For `CCc1cc2c(cc1N1CCC(N3CCN(Cc4ccc5c(c4)C(=O)N(C4CCC(=O)NC4=O)C5=O)CC3)CC1)C(C)(C)c1[nH]c3cc(C#N)ccc3c1C2=O` (centres unmarked) [GT-03761, 8-(4-(4-((2-(2,6-dioxopiperidin-3-yl)-1,3-dioxoisoindolin-5-yl)methyl)piperazin-1-yl)piperidin-1-yl)-9-ethyl-6,6-dimethyl-11-oxo-6,11-dihydro-5H-benzo[b]carbazole-3-carbonitrile], the pIC50 was greater than 7.30 with SR and 5.30 to 6.00 in the assay with MV-4-11 (Table 15, ALK inhibitor based).

(Values after US20260199323A1, “LIGAND COMPOUNDS FOR E3 UBIQUITIN LIGASE, PROTEIN DEGRADERS DEVELOPED ON BASIS OF LIGAND COMPOUNDS, AND USES THEREOF” (GLUETACS THERAPEUTICS (SHANGHAI) CO., LTD., priority 2021, published 2026).)
